Like-named read-outs stand apart in the source and are kept apart here.
Legend:
[1] = target: WT HER2 (Homo sapiens (Human), UniProt P04626); assay: HER2 (Y1248) phosphorylation in BT474 cells (MSD); assay type: cell-based; conditions: p-HER2 (Y1248)/total HER2, 4 h, read-out: HER2 WT Amplification BT474 IC50
Protocol: The plates were incubated for 4 h at 37° C. with 5% CO2 and then the HER2 (Y1248) phosphorylation level of cells in each well were measured with MSD Kit (Phospho-ErbB2 ([…]) Assay Whole Cell Lysate Kit: Cat # […]-3). The assay is a electrochemiluminescent method (MESO SCALE DISCOVERY) for determining both phosphorylated and total HER2 of cells with an MSD SECTOR® Imager and then the ratio of p-HER2/total HER2 can be generated by the machine.

[2] = Blood brain barrier penetration assay in rats (short oral absorption model); assay type: in vivo; conditions: for Kp uu: male, Han Wistar, rat, po
Protocol: In vitro blood, plasma and brain binding assay was carried out with equilibrium dialysis device. Diluted blood (1:1with DPBS pH7.4), EDTA-anticoagulated plasma, and brain homogenate (1:3 with DPBS pH7.4) were spiked with 5 μM test compound (in triplicate) and dialyzed against equal volume of 150 μL 100 mM PBS buffer (pH7.4) at 37° C. for appropriate equilibration time in a slowly rotated plate. At the end of incubation, a 50 μL aliquot from the receiver side and a 5 μL from the donor chamber were taken. The 5 μL sample was further diluted with 45 μL of blank blood, plasma or brain homogenate. Paired samples were matrix-matched with either buffer or blank matrix, and mixed for 2 min, and then precipitated with 150 μL cold acetonitrile with 100 ng/mL tolbutamide as internal standard. After centrifuging at 4000 rpm for 20 min, supernatant was diluted with 0.1% formic acid aqueous solution and analyzed for LC/MS/MS (API 4000, Applied Biosystems, Foster City). Unbound fraction (fu) of test compound were calculated by the ratio of the buffer side response to the brain homogenate/plasma/blood side response, and unbound fraction (fu,bl, fu,pl and fu,br) of test compound in non-diluted blood and tissue were calculated from measured fu in homogenate and diluted blood with the following equation: fu,bl (fu,br)=(1/D)/[(1/fu−1)+1/D)]. D is dilution factor. (D equates 1 for plasma, 2 for blood, and 4 for brain)
A Short oral absorption (SOA) model is an in-vivo screening model to identify brain penetration of a compound. Six male Han Wistar rats purchased from Beijing Vital River were orally dosed with the compound. At predefined time point post-dose, cerebral spinal fluid (CSF) was collected from cisterna magna, and blood samples (>60 μL/time point/each site) were collected via cardiac puncture, into separate EDTA anti-coagulated tubes, and then immediately diluted with 3-fold volume of water for blood samples, or centrifuged at 4000 g for 10 min to obtain plasma. Brain tissue was harvested and homogenized in 3× volume of 100 mM phosphate buffered saline (pH7.4). All samples were stored at ˜−70° C. prior to LC/MS/MS analysis.
Standards were prepared by spiking blank plasma, blood, brain homogenate and artificial CSF. Homogenized brain tissue along with blood/plasma samples were precipitated by adding 3-fold volume of cold acetonitrile containing internal standard, and 10 μL of CSF samples were precipitated with 100 μL of cold acetonitrile containing internal standard. After 2 min vortex and 5 min centrifugation at 14,000 rpm, supernatant was analyzed by LC/MS/MS (API 4000, Applied Biosystems, Foster City). Two sets of standard curves were run at the beginning and end of each batch from blood sample analysis. For brain and CSF samples, one standard curve was analyzed along with test samples.
Total brain levels, expressed as brain/blood ratio (Kp,brain) were measured by AUC(brain)/AUC(blood or plasma) in rodents after oral administration. Similarly, CSF levels represented by a ratio of CSF/blood exposure (Kp,CSF) were determined by AUC(CSF)/AUC(blood or plasma). Free fraction of test compound in biological matrix was determined by in vitro blood and brain binding assay.
Kp,uubrain and Kp,uu CSF was calculated by the following equation: Kp,uu brain=AUC(brain)/AUC(blood or plasma)×(fubrain/fublood/plasma) and Kp,uu CSF=AUC(CSF)/AUC(blood or plasma)×(1/fublood/plasma).

[3] = system: BT474 cells; assay: BT474 anti-proliferation assay (MTS); assay type: cell-based; conditions: Homo sapiens
Protocol: A compound's activity of selective inhibition for HER2 wild type amplification can be evaluated with BT474 cell line (ATCC® HTB-20™). The cell line expressed phosphorylated HER2 protein and its proliferation depended on the amplified gene, which could be used for in vitro PD and anti-proliferation assays.
The anti-proliferation activity of compounds were determined as following procedure: The BT474 cells were sorted in 384 well plates with the DMEM medium containing 10% FBS and […] overnight and then dosed with tested compounds at a series of concentrations (30 μM, 10 μM, 3 μM, 0.3 μM, 0.1 μM, 0.03 μM, 0.01 μM, 0.001 μM) on next day. Meanwhile, another cells plate was prepared for measuring GO value on next day. The dosed plates were incubate for 72h at 37° C. with 5% CO2 and the number of viable cells in each well of GO or dosed plates were measured by MTS (CellTiter 96® AQueous One Solution Cell Proliferation Assay, Promega) endpoint. This assay is a colorimetric method for determining the number viable cells in the proliferation assay. Detection reagents (5 μl) was dispensed into per well, and the plates were incubated for 2 hrs at room temperature. Then, absorbance at 490 nm and 650 nm (reference wavelength) in each well was measured using the safile II. (Tecan). The percentage of proliferation was got from the formula: % Proliferation=100×(G3 value of sample well-Go value)/(G3 value of DMSO control-Go value). The GI50 values were further calculated as the compounds concentration required for 50% Proliferation in best-fit curves using Genedata Screener® software.

[4] = target: WT EGFR (Homo sapiens (Human), UniProt P00533); assay: EGFR (Y1068) phosphorylation in NCI-H838 cells (MSD); assay type: cell-based; conditions: p-EGFR (Y1068)/total EGFR, 4 h, hEGF stimulation
Chain of WT EGFR (P00533 25-1210): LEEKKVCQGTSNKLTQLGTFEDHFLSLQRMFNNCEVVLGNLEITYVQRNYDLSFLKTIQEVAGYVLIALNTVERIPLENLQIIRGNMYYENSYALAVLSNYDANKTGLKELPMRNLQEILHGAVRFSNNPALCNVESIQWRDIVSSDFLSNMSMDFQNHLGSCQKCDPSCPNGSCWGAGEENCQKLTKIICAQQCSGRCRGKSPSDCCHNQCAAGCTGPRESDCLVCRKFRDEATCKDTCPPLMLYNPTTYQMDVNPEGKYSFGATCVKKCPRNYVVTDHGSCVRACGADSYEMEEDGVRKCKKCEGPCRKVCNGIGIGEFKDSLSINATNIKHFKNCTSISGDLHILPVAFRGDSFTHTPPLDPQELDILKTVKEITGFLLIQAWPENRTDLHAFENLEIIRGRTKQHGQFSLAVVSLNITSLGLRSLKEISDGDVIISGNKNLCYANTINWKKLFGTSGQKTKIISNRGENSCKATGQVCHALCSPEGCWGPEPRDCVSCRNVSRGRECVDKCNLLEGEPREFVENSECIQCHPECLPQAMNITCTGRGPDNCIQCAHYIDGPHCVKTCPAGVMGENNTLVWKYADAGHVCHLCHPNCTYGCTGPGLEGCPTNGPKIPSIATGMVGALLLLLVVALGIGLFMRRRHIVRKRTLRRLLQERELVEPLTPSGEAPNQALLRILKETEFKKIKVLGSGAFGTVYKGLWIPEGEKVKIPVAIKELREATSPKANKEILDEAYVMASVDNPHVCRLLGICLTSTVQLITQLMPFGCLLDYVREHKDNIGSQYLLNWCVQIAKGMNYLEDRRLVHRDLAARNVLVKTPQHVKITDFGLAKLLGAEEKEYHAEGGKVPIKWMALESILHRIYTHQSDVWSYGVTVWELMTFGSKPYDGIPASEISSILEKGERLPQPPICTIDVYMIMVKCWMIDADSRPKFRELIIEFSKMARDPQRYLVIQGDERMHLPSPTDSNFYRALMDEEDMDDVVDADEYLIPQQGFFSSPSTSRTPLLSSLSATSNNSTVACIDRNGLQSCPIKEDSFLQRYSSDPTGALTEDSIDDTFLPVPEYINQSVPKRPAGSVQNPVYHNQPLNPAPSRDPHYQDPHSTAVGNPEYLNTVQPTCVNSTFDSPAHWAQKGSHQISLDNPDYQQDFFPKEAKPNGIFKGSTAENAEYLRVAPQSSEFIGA

[5] = CSF, male Han Wistar rats, oral, AUC(CSF)/AUC(blood or plasma) x 1/fu, read-out: Kp,uu CSF
[6] = brain, male Han Wistar rats, oral, AUC(brain)/AUC(blood or plasma) x fu ratio, read-out: Kp,uu brain
[7] = BT-474, BT474 cells, 72 h, MTS, read-out: HER2 WT Amplification BT474 GI50

Chain of WT HER2 (P04626 23-1255): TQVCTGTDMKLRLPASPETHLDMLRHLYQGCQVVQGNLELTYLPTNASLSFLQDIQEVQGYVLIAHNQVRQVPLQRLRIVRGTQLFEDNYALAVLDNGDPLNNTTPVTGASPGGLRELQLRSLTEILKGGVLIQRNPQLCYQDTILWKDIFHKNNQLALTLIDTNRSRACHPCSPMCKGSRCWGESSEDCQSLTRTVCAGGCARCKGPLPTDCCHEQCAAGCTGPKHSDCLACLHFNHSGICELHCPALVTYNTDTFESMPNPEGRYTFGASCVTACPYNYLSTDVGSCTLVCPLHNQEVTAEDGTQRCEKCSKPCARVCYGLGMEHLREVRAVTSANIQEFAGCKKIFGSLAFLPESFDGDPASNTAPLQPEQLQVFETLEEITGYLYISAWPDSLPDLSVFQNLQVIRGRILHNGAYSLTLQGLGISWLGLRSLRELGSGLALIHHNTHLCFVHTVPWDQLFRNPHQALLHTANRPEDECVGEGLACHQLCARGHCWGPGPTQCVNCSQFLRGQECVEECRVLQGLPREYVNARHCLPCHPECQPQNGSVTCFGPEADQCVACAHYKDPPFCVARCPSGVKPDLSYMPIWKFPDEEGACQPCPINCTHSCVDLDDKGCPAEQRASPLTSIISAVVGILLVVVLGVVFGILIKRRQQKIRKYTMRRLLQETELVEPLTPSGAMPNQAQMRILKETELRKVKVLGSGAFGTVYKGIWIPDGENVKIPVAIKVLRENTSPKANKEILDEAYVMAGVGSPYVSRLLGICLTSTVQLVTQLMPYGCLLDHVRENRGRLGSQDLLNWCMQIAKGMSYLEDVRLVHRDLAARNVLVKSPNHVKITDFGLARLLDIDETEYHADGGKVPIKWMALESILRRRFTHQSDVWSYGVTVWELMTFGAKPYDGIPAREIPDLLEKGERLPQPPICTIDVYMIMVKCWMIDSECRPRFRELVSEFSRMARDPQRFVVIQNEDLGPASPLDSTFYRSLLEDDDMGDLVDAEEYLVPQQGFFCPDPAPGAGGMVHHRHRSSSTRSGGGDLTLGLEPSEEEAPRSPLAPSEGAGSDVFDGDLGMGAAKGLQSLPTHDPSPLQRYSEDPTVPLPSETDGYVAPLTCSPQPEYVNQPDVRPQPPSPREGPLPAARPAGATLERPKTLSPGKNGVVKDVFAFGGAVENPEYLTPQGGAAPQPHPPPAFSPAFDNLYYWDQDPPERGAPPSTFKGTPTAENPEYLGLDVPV

SMILES	IC50 [1]	Kp uu [2, 5]	Kp uu [2, 6]	GI50 [3, 7]	IC50 [4]	Kp uu ([2]; in vivo, Kp,uu CSF)	Kp uu ([2]; in vivo, Kp,uu brain)	Kp,uu CSF ([2]; male Han Wistar rats, oral, AUC(CSF)/AUC(blood or plasma) x 1/fu)	Kp,uu brain ([2]; male Han Wistar rats, oral, AUC(brain)/AUC(blood or plasma) x fu ratio)	GI50 ([3]; BT-474, 72 h, read-out: HER2 WT Amplification BT474 GI50 (nM))
Cc1cc(Nc2ncnc3cccc(OC4CCN(C)CC4(F)F)c23)ccc1Oc1ccn2ncnc2c1 (single isomer, unassigned) [Compound 1, N-(4-([1,2,4]triazolo[1,5-a]pyridin-7-yloxy)-3-methylphenyl)-5-((3,3-difluoro-1-methylpiperidin-4-yl)oxy)quinazolin-4-amine]	6.86 nM	1.44	0.23	24.2 ± 24 nM	> 3000 nM	–	–	–	–	–
COc1cc(O[C@H]2CCN(C)CC2(F)F)c2c(Nc3ccc(Oc4ccn5ncnc5c4)c(C)c3)ncnc2c1 (single isomer, unassigned) [Compound 6]	19.6 ± 8.76 nM	0.56	0.18	18.7 ± 9.16 nM	3290 ± 1350 nM	–	–	–	–	–
COc1cc(OC2CCN(C)CC2(F)F)c2c(Nc3cc(C)c(Oc4ccn5ncnc5c4)cc3F)ncnc2c1 (single isomer, unassigned) [Compound 14]	19.7 nM	0.24	0.04	26.8 ± 11.5 nM	1390 nM	–	–	–	–	–
Cc1cc(Nc2ncnc3cc(F)cc(OC4CCN(C)CC4(F)F)c23)ccc1Oc1ccn2ncnc2c1 (single isomer, unassigned) [Compound 17]	44 nM	1.02	0.07	126 ± 9.01 nM	> 3000 nM	–	–	–	–	–
Cc1cc(Nc2ncnc3cccc(OC4CC(C)N(C)CC4(F)F)c23)ccc1Oc1ccn2ncnc2c1 (single isomer, unassigned) [Compound 19]	9.56 ± 3.13 nM	0.4	0.1	11.5 nM	> 10000 nM	–	–	–	–	–
COc1cc(O[C@H]2CCNCC2(F)F)c2c(Nc3ccc(Oc4ccn5ncnc5c4)c(C)c3)ncnc2c1 [Compound 16, (S)-N-(4-([1,2,4]triazolo[1,5-a]pyridin-7-yloxy)-3-methylphenyl)-5-((3,3-difluoropiperidin-4-yl)oxy)-7-methoxyquinazolin-4-amine]	10.6 ± 2.4 nM	0.11	0.03	14.3 ± 13.6 nM	3060 ± 80.2 nM	–	–	–	–	–
Cc1cc(Nc2ncnc3cccc(O[C@@H]4C[C@H]5CC[C@@H](C4)N5C)c23)ccc1Oc1ccn2ncnc2c1 [Compound 20, N-(4-([1,2,4]triazolo[1,5-a]pyridin-7-yloxy)-3-methylphenyl)-5-(((1R,3s,5S)-8-methyl-8-azabicyclo[3.2.1]octan-3-yl)oxy)quinazolin-4-amine]	12.6 nM	–	–	41 ± 1.55 nM	> 10000 nM	0.07	0.08	–	–	–
CCOc1cc2ncc(C#N)c(Nc3ccc(OCc4ccccn4)c(Cl)c3)c2cc1NC(=O)/C=C/CN(C)C [Neratinib, reference compound]	–	–	–	–	–	–	–	AUC(CSF) below	AUC(brain) below	0.71 ± 0.08 nM

Now from value to compound, other results behind:

IC50 [1]	Kp uu [2, 5]	Kp uu [2, 6]	GI50 [3, 7]	IC50 [4]	SMILES	Kp uu ([2]; in vivo, Kp,uu CSF)	Kp uu ([2]; in vivo, Kp,uu brain)	Kp,uu CSF ([2]; male Han Wistar rats, oral, AUC(CSF)/AUC(blood or plasma) x 1/fu)	Kp,uu brain ([2]; male Han Wistar rats, oral, AUC(brain)/AUC(blood or plasma) x fu ratio)	GI50 ([3]; BT-474, 72 h, read-out: HER2 WT Amplification BT474 GI50 (nM))
16.8 nM	1.92	0.11	47.2 nM	> 10000 nM	[2H]C([2H])([2H])N1CC[C@H](Oc2cccc3ncnc(Nc4ccc(Oc5ccn6ncnc6c5)c(C)c4)c23)C[C@@H]1C(F)(F)F (racemic) [Compound 25, (±)-N-(4-([1,2,4]triazolo[1,5-a]pyridin-7-yloxy)-3-methylphenyl)-5-(((2R,4S)-1-(methyl-d3)-2-(trifluoromethyl)piperidin-4-yl)oxy)quinazolin-4-amine]	–	–	–	–	–
10.3 nM	0.52	0.1	22.1 nM	5130 nM	[2H]C1(Oc2cc(OC)cc3ncnc(Nc4ccc(Oc5ccn6ncnc6c5)c(C)c4)c23)CCN(C)CC1(F)F (racemic) [Compound 27, (±)-N-(4-([1,2,4]triazolo[1,5-a]pyridin-7-yloxy)-3-methylphenyl)-5-((3,3-difluoro-1-methylpiperidin-4-yl-4-d)oxy)-7-methoxyquinazolin-4-amine]	–	–	–	–	–
9.38 nM	1.44	0.23	50.8 nM	> 10000 nM	[2H]C([2H])([2H])N1CCC(Oc2cccc3ncnc(Nc4ccc(Oc5ccn6ncnc6c5)c(C)c4)c23)C(F)(F)C1 (single isomer, unassigned) [Compound 24, N-(4-([1,2,4]triazolo[1,5-a]pyridin-7-yloxy)-3-methylphenyl)-5-((3,3-difluoro-1-(methyl-d3)piperidin-4-yl)oxy)quinazolin-4-amine]	–	–	–	–	–
22.4 nM	0.52	0.11	35.8 nM	5220 nM	[2H]C([2H])([2H])N1CCC([2H])(Oc2cc(OC)cc3ncnc(Nc4ccc(Oc5ccn6ncnc6c5)c(C)c4)c23)C(F)(F)C1 (single isomer, unassigned) [Compound 28]	–	–	–	–	–

Reference: patent US10822334B2, “ErbB receptor inhibitors” (Dizal (Jiangsu) Pharmaceutical Co., Ltd., priority 2018, dated 2020)
